Source: US7875297B2, “Method for treating menorrhagia” (Ablation Products LLC, priority 2003, dated 2011)

Tested on: beef muscle tissue (fillet mignon)
Assay: Tissue necrosis with AgNO3 bearing beads placed on the surface of beef muscle tissue
Text: The degree of necrosis was rated as follows: slight visible pitting of the tissue surface (+); moderate pitting of tissue surface with slight blackening of the tissue (++); significant pitting with moderate blackening of the tissue (+++); severe pitting with complete blackening of the tissue ([…]+); and severe pitting with complete blackening of the tissue, spreading beyond the point of contact (+++++).

Question: With O=[N+]([O-])[O-].[Ag+] [AgNO3 Crystal, silver nitrate] as the molecule, how does the “Tissue Necrosis (degree of necrosis of the tissue under each bead)” value (from here on “Tissue Necrosis”) (Time 5 minutes) read?
Answer: + + +

Question: And the “Tissue Necrosis” value (Time 10 minutes)?
Answer: + + + +

Question: What about the “Tissue Necrosis” value (Time 15 minutes) of the same molecule?
Answer: + + + + +
